For one data set, the system named is HepG2 cells. Description: Cytotoxicity experiment (MTS) of polymer and anti-cancer drug on HepG2 cells. In kind it is cell-based, human. The following applies: for viability at 4 µg/mL / viability at 5 µg/mL: Homo sapiens; for viability at 5 µg/mL: read-out: Cell Viability (%) Taxol. Here is the method:
(§1) A suspension of HepG2 cells diluted in 100 μL of a complete medium (a RPMI-1640 medium containing 10% fetal bovine serum and 1% penneillin/streptomycin) was added into a 96-well plate at a concentration of 5×10^3 cells per well, cultivated at 37 degrees Celsius for 24 hours. […] The solution was then aspirated, added with 100 μL of fresh complete medium and incubated continually for 24 hours. The culture medium was aspirated, added with 80 μL PBS solution and 20 μL cell proliferation reagent MTS, incubated at 37 degrees Celsius for 1 hour, and then measured with a microplate reader at 490 nm for absorbance.
This embodiment is an in vitro cell experiment of the effect of a polyallylamine-2,3-dimethyl maleic anhydride modifier with a molecular weight of 15,000 (PAA15K-DMA) for promoting the toxicity of different chemotherapeutic drugs on non-resistant HepG2 cells. According to the method described in Embodiment 4, the concentration of PAA15K-DMA was 25 μg/mL, and the obtained data was shown in Table 1.
This embodiment is an in vitro cell experiment of the effect of a polyallylamine-cyclohexene-1,2-dicarboxylic acid modifier with a molecular weight of 200,000 (PAA200K-TPA) for promoting the toxicity of different chemotherapeutic drugs on non-resistant HepG2 cells. According to the method described in Embodiment 4, the concentration of PAA200K-TPA was 25 μg/mL, and the obtained data was shown in Table 1 and FIG. 1.
as §1, with “804” for “80 μL”
This embodiment is an in vitro cell experiment of the effect of a linear polyethylenimine-cyclohexene-1,2-dicarboxylic acid modifier with a molecular weight of 10,000 (LPEI10K-TPA) for promoting the toxicity of different chemotherapeutic drugs on non-resistant HepG2 cells. According to the method described in Embodiment 10, the concentration of LPEI10K-TPA was 15 μg/mL, and the obtained data was shown in Table 1.
This embodiment is an in vitro cell experiment of the effect of a branched polyethyleneimine-1-methyl maleic anhydride modifier with a molecular weight of 25,000 (BPEI25K-CA) for promoting the toxicity of different chemotherapeutic drugs on non-resistant HepG2 cells. According to the method described in Embodiment 10, the concentration of BPEI25K-CA was 15 μg/mL, and the obtained data was shown in Table 1.
This embodiment is an in vitro cell experiment of the effect of a 3rd-generation dendritic polypropyleneimine-3-carboxy-2-pentenedioic acid modifier (G3 PPI-AA) for promoting the toxicity of different chemotherapeutic drugs on non-resistant HepG2 cells. According to the method described in Embodiment 10, the concentration of G3 PPI-AA was 20 μg/mL, and the obtained data was shown in Table 1.
This embodiment is an in vitro cell experiment of the effect of a 3rd-generation dendritic polypropyleneimine-2,3-dimethyl maleic anhydride modifier (G3 PPI-DMA) for promoting the toxicity of different chemotherapeutic drugs on non-resistant HepG2 cells. According to the method described in Embodiment 10, the concentration of G3 PPI-DMA was 20 μg/mL, and the obtained data was shown in Table 1 and FIG. 3.
This embodiment is an in vitro cell experiment of the effect of a branched polylysine-cyclohexene-1,2-dicarboxylic acid modifier having a molecular weight of 2,000 (BPLys2K-TPA) for promoting the toxicity of different chemotherapeutic drugs on non-resistant HepG2 cells. […]

In another data set the test system is HepG2/ADR cells. As to the kind of experiment: Cytotoxicity experiment (MTS) of polymer and anti-cancer drug on HepG2/ADR cells. It counts as cell-based. The conditions noted are these: Homo sapiens, read-out: Cell Viability (%) Taxol. Here is the method:
as §1, with “HepG2/ADR” for “HepG2”, “2 hours,” for “1 hour,”
as §1, with “suspension of HepG2/ADR cells diluted” for “suspension of HepG2 cells diluted”, “in 100 IA of a” for “in 100 μL of a”, “Celsius for 2 hours, and then” for “Celsius for 1 hour, and then”, “for absorbance. […]” for “for absorbance.”

The mark [1] stands for this setting: HepG2, pH = 6.5, 5 μg/mL taxol alone (control).
The mark [2] stands for this setting: HepG2, pH = 7.4, 5 μg/mL taxol alone (control).

Where “and” joins values, the source holds several entries; their conditions need not be identical. Identical values can stand only once. Like-named read-outs stand apart in the source and are kept apart here.

As to `COc1cccc2c1C(=O)c1c(O)c3c(c(O)c1C2=O)C[C@@](O)(C(=O)CO)C[C@@H]3O[C@H]1C[C@H](N)[C@H](O)[C@H](C)O1` [Doxorubicin, doxorubicin], the viability at 4 µg/mL in the data set on HepG2 cells (HepG2, read-out: Cell Viability (%) Doxorubicin, pH = 6.5, 4 μg/mL doxorubicin alone (control)) turned out to be 77%; with HepG2 cells (HepG2, read-out: Cell Viability (%) Doxorubicin, pH = 7.4, 4 μg/mL doxorubicin alone (control)), 72.9%. Also, the “Cell Viability (%) Doxorubicin” value in the data set on HepG2 cells (pH = 6.5, 4 μg/mL doxorubicin alone (control)) was 78.59% and 77.13%; in the data set on HepG2 cells (pH = 7.4, 4 μg/mL doxorubicin alone (control)), 70.75% and 73.82%.
As for `CC(=O)O[C@H]1C(=O)[C@@]2(C)[C@H]([C@H](OC(=O)c3ccccc3)[C@]3(O)C[C@H](OC(=O)[C@H](O)[C@@H](NC(=O)c4ccccc4)c4ccccc4)C(C)=C1C3(C)C)[C@]1(OC(C)=O)CO[C@@H]1C[C@@H]2O` [Taxol, taxol], the viability at 5 µg/mL in the data set with HepG2 cells (setting [1]) came to 80.3%; with HepG2 cells (setting [2]), 83.1%; in the data set on HepG2/ADR cells (setting [1]), 84.5%; in the data set with HepG2/ADR cells (setting [2]), 89.2%. Further, the “Cell Viability (%) Taxol” value was 78.66% and 76.08% in the data set with HepG2 cells (pH = 6.5, 5 μg/mL taxol alone (control)); 82.38% and 80.61% in the data set with HepG2 cells (pH = 7.4, 5 μg/mL taxol alone (control)).

These data come from patent US20180339053A1, “USE OF 1,2-DICARBOXYLIC ACID MONOAMIDE POLYMER AS SYNERGIST FOR CHEMOTHERAPY” (Nankai University, priority 2017, published 2018).
